Laboratory results reported in patent US20250333406A1, “SULFONYL CYCLIC DERIVATIVES, AND COMPOSITIONS AND METHODS THEREOF” (Lysoway Therapeutics, Inc., priority 2023, published 2025).

System: TFEB
Experiment: TFEB Nuclear Translocation Assay
Type: cell-based
Details: read-out: EC50 of TFEB activation

Structure (SMILES) | EC50 [nM]
CC(=O)N1CCN(c2nn(S(=O)(=O)c3ccc(S(=O)(=O)C(C)C)cc3)c3cccc(Cl)c23)C2(CC2)C1 [Compound 56, 1-[4-[4-chloro-1-(4-isopropylsulfonylphenyl)sulfonyl-indazol-3-yl]-4,7-diazaspiro[2.5]octan-7-yl]ethanone] | ≤ 1000
CC(C)S(=O)(=O)c1ccc(S(=O)(=O)n2nc(N3CCN(c4ncc(F)cn4)CC34CC4)c3c(Cl)cccc32)cc1F [Compound 62, 4-chloro-1-(3-fluoro-4-isopropylsulfonyl-phenyl) sulfonyl-3-[7-(5-fluoropyrimidin-2-yl)-4,7-diazaspiro [2.5]octan-4-yl]indazole] | ≤ 1000
O=C(N1CCN(c2nn(S(=O)(=O)c3ccc(C(F)F)cc3)c3cccc(Cl)c23)C(C(F)(F)F)C1)C(F)(F)F (stereo not drawn) [Compound 76, 1-[4-[4-chloro-1-[4-(difluoromethyl)phenyl]sulfonyl-indazol-3-yl]-3-(trifluoromethyl)piperazin-1-yl]-2,2,2-trifluoro-ethanone] | ≤ 1000
O=S(=O)(c1ccc(C(F)F)cc1)n1nc(N2CCN(c3ncc(F)cn3)CC2C(F)(F)F)c2c(Cl)cccc21 (stereo not drawn) [Compound 77, 4-chloro-1-[4-(difluoromethyl)phenyl]sulfonyl-3-[4-(5-fluoropyrimidin-2-yl)-2-(trifluoromethyl)piperazin-1-yl]indazole] | ≤ 1000
O=S(=O)(c1ccc(C(F)F)cc1)n1nc(N2CCN(c3ncc(F)cn3)CC23CC3)c2c(Cl)cccc21 [Compound 78, 4-chloro-1-[4-(difluoromethyl)phenyl]sulfonyl-3-[7-(5-fluoropyrimidin-2-yl)-4,7-diazaspiro [2.5]octan-4-yl]indazole] | ≤ 1000
CC(C)S(=O)(=O)c1ccc(S(=O)(=O)n2nc(N3CCC(Cl)=CC3C(F)(F)F)c3c(Cl)cccc32)cc1 (stereo not drawn) [Compound 79, 4-chloro-3-[4-chloro-6-(trifluoromethyl)-3,6-dihydro-2H-pyridin-1-yl]-1-(4-isopropylsulfonylphenyl) sulfonyl-indazole] | ≤ 1000
CC(C)S(=O)(=O)c1ccc(S(=O)(=O)n2nc(N3CCC(Cl)=C[C@@H]3C(F)(F)F)c3c(Cl)cccc32)cc1 [Compound 80, 4-chloro-3-[(6R)-4-chloro-6-(trifluoromethyl)-3,6-dihydro-2H-pyridin-1-yl]-1-(4-isopropylsulfonylphenyl)sulfonyl-indazole] | ≤ 1000
CC(C)S(=O)(=O)c1ccc(S(=O)(=O)n2nc(N3CCC(Cl)=C[C@H]3C(F)(F)F)c3c(Cl)cccc32)cc1 [Compound 81, 4-chloro-3-[(6S)-4-chloro-6-(trifluoromethyl)-3,6-dihydro-2H-pyridin-1-yl]-1-(4-isopropylsulfonylphenyl)sulfonyl-indazole] | ≤ 1000
CC(C)S(=O)(=O)c1ccc(S(=O)(=O)n2nc(N3CC=C(Cl)C[C@@H]3C(F)(F)F)c3c(Cl)cccc32)cc1 [Compound 82, 4-chloro-3-[(2R)-4-chloro-2-(trifluoromethyl)-3,6-dihydro-2H-pyridin-1-yl]-1-(4-isopropylsulfonylphenyl)sulfonyl-indazole] | ≤ 1000
CC(C)S(=O)(=O)c1ccc(S(=O)(=O)n2nc(N3CCC(=O)CC3C(F)(F)F)c3c(Cl)cccc32)cc1 (stereo not drawn) [Compound 84, 1-[4-chloro-1-(4-isopropylsulfonylphenyl)sulfonyl-indazol-3-yl]-2-(trifluoromethyl)piperidin-4-one] | ≤ 1000
CC(C)S(=O)(=O)c1ccc(S(=O)(=O)n2nc(N3CCC(F)(F)CC3C(F)(F)F)c3c(Cl)cccc32)cc1 (stereo not drawn) [Compound 85, 4-chloro-3-[4,4-difluoro-2-(trifluoromethyl)-1-piperidyl]-1-(4-isopropylsulfonylphenyl) sulfonyl-indazole] | ≤ 1000
CC(C)S(=O)(=O)c1ccc(S(=O)(=O)n2nc(N3CCC(OC(F)F)CC3C(F)(F)F)c3c(Cl)cccc32)cc1 (stereo not drawn) [Compound 86, 4-chloro-3-[4-(difluoromethoxy)-2-(trifluoromethyl)-1-piperidyl]-1-(4-isopropylsulfonylphenyl) sulfonyl-indazole] | ≤ 1000
CC(C)S(=O)(=O)c1ccc(S(=O)(=O)n2nc(N3CCC(OC(F)F)CC34CC4)c3c(Cl)cccc32)cc1 (stereo not drawn) [Compound 87, 4-chloro-3-[7-(difluoromethoxy)-4-azaspiro [2.5]octan-4-yl]-1-(4-isopropylsulfonylphenyl) sulfonyl-indazole] | ≤ 1000
CC(F)(F)c1ccc(S(=O)(=O)n2nc(N3CCC4(CCO4)CC34CC4)c3c(Cl)cccc32)cc1 (stereo not drawn) [Compound 88, 11-[4-chloro-1-[4-(1,1-difluoroethyl)phenyl]sulfonyl-indazol-3-yl]-8-oxa-11-azadispiro [2.1.35.33]undecane] | ≥ 10000
O=S(=O)(c1ccc(C2(F)COC2)cc1)n1nc(N2CCN(c3ncc(F)cn3)CC23CC3)c2c(Cl)cccc21 [Compound 89, 4-chloro-1-[4-(3-fluorooxetan-3-yl)phenyl]sulfonyl-3-[7-(5-fluoropyrimidin-2-yl)-4,7-diazaspiro [2.5]octan-4-yl]indazole] | ≤ 1000

The next lines start with the values.

EC50 [nM] | Structure (SMILES)
≤ 1000 | CC(C)S(=O)(=O)c1ccc(S(=O)(=O)n2nc(N3CCN(C(=O)C(F)(F)F)CC34CC4)c3c(Cl)cccc32)cc1 [Compound 55, 1-[4-[4-chloro-1-(4-isopropylsulfonylphenyl)sulfonyl-indazol-3-yl]-4,7-diazaspiro [2.5]octan-7-yl]-2,2,2-trifluoro-ethanone]
≤ 1000 | CC(C)S(=O)(=O)c1ccc(S(=O)(=O)n2nc(N3CCN(C(=O)C4CC4)CC34CC4)c3c(Cl)cccc32)cc1 [Compound 57, [4-[4-chloro-1-(4-isopropylsulfonylphenyl)sulfonyl-indazol-3-yl]-4,7-diazaspiro[2.5]octan-7-yl]-cyclopropyl-methanone]
≤ 1000 | CC(C)S(=N)(=O)c1ccc(S(=O)(=O)n2nc(N3CCN(c4ncc(F)cn4)CC34CC4)c3c(Cl)cccc32)cc1 (stereo not drawn) [Compound 58, [4-[4-chloro-3-[7-(5-fluoropyrimidin-2-yl)-4,7-diazaspiro [2.5]octan-4-yl]indazol-1-yl]sulfonylphenyl]-imino-isopropyl-oxo-λ6-sulfane]
≤ 1000 | CC(C)S(=O)(=O)n1ccc(S(=O)(=O)n2nc(N3CCN(CC(F)(F)F)CC34CC4)c3c(Cl)cc(F)cc32)c1 [Compound 59, 4-chloro-6-fluoro-1-(1-isopropylsulfonylpyrrol-3-yl)sulfonyl-3-[7-(2,2,2-trifluoroethyl)-4,7-diazaspiro[2.5]octan-4-yl]indazole]
≤ 1000 | CC(C)S(=O)(=O)c1ccc(S(=O)(=O)n2nc(N3CCN(c4ncc(F)cn4)C[C@@H]3C3CC3)c3c(Cl)cccc32)cc1 [Compound 60, (S)-4-chloro-3-(2-cyclopropyl-4-(5-fluoropyrimidin-2-yl)piperazin-1-yl)-1-((4-(isopropylsulfonyl)phenyl)sulfonyl)-1H-indazole]
≤ 1000 | CC(C)S(=O)(=O)c1ccc(S(=O)(=O)n2nc(N3CCCCC3C3CC3)c3c(Cl)cccc32)cc1 (stereo not drawn) [Compound 63, 4-chloro-3-(2-cyclopropyl-1-piperidyl)-1-(4-isopropylsulfonylphenyl) sulfonyl-indazole]
≤ 1000 | [2H]c1c([2H])c(S(=O)(=O)n2nc(N3CCN(c4ncc(F)cn4)CC34CC4)c3c(Cl)cccc32)c([2H])c([2H])c1S(=O)(=O)C(C)C [Compound 64, 4-chloro-3-[7-(5-fluoropyrimidin-2-yl)-4,7-diazaspiro [2.5]octan-4-yl]-1-(2,3,5,6-tetradeuterio-4-isopropylsulfonyl-phenyl) sulfonyl-indazole]
≤ 1000 | CC(C)S(=O)(=O)c1ccc(S(=O)(=O)n2nc(N3CCN(c4ncccn4)CC34CC4)c3c(Cl)cccc32)cc1 [Compound 65, 4-chloro-1-(4-isopropylsulfonylphenyl) sulfonyl-3-(7-pyrimidin-2-yl-4,7-diazaspiro[2.5]octan-4-yl) indazole]
≤ 1000 | CC(C)S(=O)(=O)c1ccc(S(=O)(=O)n2nc(N3CCCCC3C(F)(F)F)c3c(Cl)cccc32)cc1 (stereo not drawn) [Compound 66, 4-chloro-1-(4-isopropylsulfonylphenyl)sulfonyl-3-[2-(trifluoromethyl)-1-piperidyl]indazole]
≤ 1000 | CC(C)S(=O)(=O)c1ccc(S(=O)(=O)n2nc(N3CCN(c4ncc(F)cn4)CC3C(F)(F)F)c3c(Cl)cccc32)cc1 (stereo not drawn) [Compound 67, 4-chloro-3-[4-(5-fluoropyrimidin-2-yl)-2-(trifluoromethyl)piperazin-1-yl]-1-(4-isopropylsulfonylphenyl) sulfonyl-indazole]
≤ 1000 | CC(C)S(=O)(=O)c1ccc(S(=O)(=O)n2nc(N3CCN(c4ncc(F)cn4)C[C@@H]3C(F)(F)F)c3c(Cl)cccc32)cc1 [Compound 68, 4-chloro-3-[(2R)-4-(5-fluoropyrimidin-2-yl)-2-(trifluoromethyl)piperazin-1-yl]-1-(4-isopropylsulfonylphenyl) sulfonyl-indazole]
≤ 1000 | CC(C)S(=O)(=O)c1ccc(S(=O)(=O)n2nc(N3CCN(C(=O)C(F)(F)F)C[C@@H]3C(F)(F)F)c3c(Cl)cccc32)cc1 [Compound 70, 1-[(3R)-4-[4-chloro-1-(4-isopropylsulfonylphenyl)sulfonyl-indazol-3-yl]-3-(trifluoromethyl)piperazin-1-yl]-2,2,2-trifluoro-ethanone]
≤ 1000 | CC(C)S(=O)(=O)c1ccc(S(=O)(=O)n2nc(N3CCN(c4ncc(F)cn4)C[C@@H]3C(F)(F)F)c3c(F)cccc32)cc1 [Compound 72, 4-fluoro-3-[(2R)-4-(5-fluoropyrimidin-2-yl)-2-(trifluoromethyl)piperazin-1-yl]-1-(4-isopropylsulfonylphenyl)sulfonyl-indazole]
≤ 1000 | CC(C)S(=O)(=O)c1ccc(S(=O)(=O)n2nc(N3CCN(C(=O)C(F)F)CC3C(F)(F)F)c3c(Cl)cccc32)cc1 (stereo not drawn) [Compound 74, 1-[4-[4-chloro-1-(4-isopropylsulfonylphenyl)sulfonyl-indazol-3-yl]-3-(trifluoromethyl)piperazin-1-yl]-2,2-difluoro-ethanone]
≤ 1000 | CC(C)S(=O)(=O)c1ccc(S(=O)(=O)n2nc(N3CCN(CC(F)(F)F)CC3C(F)(F)F)c3c(Cl)cccc32)cc1 (stereo not drawn) [Compound 75, 4-chloro-1-(4-isopropylsulfonylphenyl)sulfonyl-3-[4-(2,2,2-trifluoroethyl)-2-(trifluoromethyl)piperazin-1-yl]indazole]
